Molecules are shown by their SMILES. Where two headings read alike, the source gives them in different places. Some results are limits rather than exact numbers.

Consider 5 compounds from patent US9932339B2, “Helquats with heteroaromatic substituents, preparation thereof, and use thereof as G-quadruplex stabilizers” (USTAV ORGANICKE CHEMIE A BIOCHEMIE AV CR, V.V.I., priority 2014, dated 2018).

Assay [1] deals with CCRF-CEM. The assay can be described thus: XTT cytotoxicity/proliferation assay, CCRF-CEM. It counts as cell-based. The conditions noted are these: Homo sapiens, CCRF-CEM. The method, boiled down: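 CCRF-CEM cells plated at 3000 per well, treated next day for 72 h with helquats over 1-100 μmol·l^−1. Viability by XTT reduction (2 h), absorbance 492 nm with 690 nm reference; IC50 from triplicates, repeated in at least three independent experiments, values above 100 μmol·l^−1 extrapolated.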

In assay [2] the test system is HUVEC. The assay can be described thus: XTT cytotoxicity/proliferation assay, HUVEC. It counts as cell-based, human. As to conditions: Homo sapiens, HUVEC. The method, boiled down: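 HUVEC (passages 3–8, collagen I-coated dishes, E-STIM medium) plated at 3000 cells/well, dosed next day with compounds in water. After 72 h at 37 °C, XTT added for 2 h; absorbance at 492 nm (reference 690 nm) against untreated and medium-only controls.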

The mark [3] stands for this setting: 72 hours of treatment, read-out: IC50 CCRF CEM.
The mark [4] stands for this setting: 72 hours of treatment, values above 100 μmol·l^−1 obtained by extrapolation, read-out: IC50 HUVEC.
The mark [5] stands for this setting: 72 hours, summary of table 9, read-out: concentrations toxic towards CCRF-CEM cells.
Where [6] appears, read: 72 hours, summary of table 9, read-out: concentrations non-toxic towards HUVEC cells.

As for `Cc1c(C)c2c(c3c1CC[n+]1ccc(/C=C/c4cccc5c4oc4ccccc45)cc1-3)-c1c3ccccc3cc[n+]1CC2` (racemic) [MJA-C13-8, (rac)-(E)-13-(2-(dibenzo[b,d]furan-4-yl)vinyl)-6,7-dimethyl-4,5,8,9-tetrahydroisoquinolino[1,2-a]pyrido[1,2-k][2,9]phenanthroline-3,10-diium trifluoromethanesulfonate], the IC50 was 26 to 50 µM in assay [1] (setting [3]) and at least 100 µM in assay [2] (setting [4]).
Take `C(=C\c1cccc2c1oc1ccccc12)/c1cc[n+]2c(c1)-c1c(ccc3c1-c1c4ccccc4cc[n+]1CC3)CC2.O=S(=O)([O-])C(F)(F)F.O=S(=O)([O-])C(F)(F)F` [MSB-C13-8, (E)-13-(2-(dibenzo[b,d]furan-4-yl)vinyl)-4,5,8,9-tetrahydroisoquinolino[1,2-a]pyrido[1,2-k][2,9]phenanthroline-3,10-diium trifluoromethanesulfonate]: the values for the IC50 in assay [1] (setting [3]) and in assay [2] (setting [4]) were 26 to 50 µM and at least 100 µM, respectively.
Take `O=[N+]([O-])c1cccc2[nH]cc(/C=C/c3cc[n+]4c(c3)-c3c(ccc5c3-c3cccc[n+]3CC5)CC4)c12` (racemic) [LSA-C9-32, (rac)-(E)-2-(2-(4-nitro-1H-indol-3-yl)vinyl)-6,7,10,11-tetrahydrodipyrido[2,1-a:1′,2′-k][2,9]phenanthroline-5,12-diium trifluoromethanesulfonate]: the IC50 is 11 to 25 µM in assay [1] (setting [3]), under 25 µM in assay [1] (setting [5]), at least 100 µM in assay [2] (setting [4]) and over 100 µM in assay [2] (setting [6]).
Consider `C(=C\c1c(-c2ccccc2)[nH]c2ccccc12)/c1cc2ccccc2[n+]2c1-c1c(ccc3c1-c1cccc[n+]1CCC3)CCC2.O=S(=O)([O-])C(F)(F)F.O=S(=O)([O-])C(F)(F)F` [MSC-C15-8, 19-((E)-2-(2-phenyl-1H-indol-3-yl)vinyl)-6,7,8,11,12,13-hexahydropyrido[1′″,2′″:1″,2″]azepino[4″,3″:5′,6′]benzo[1′,2′:3,4]azepino[1,2-a]quinoline-5,14-diium trifluoromethanesulfonate], for which the values for the IC50 in assay [1] (setting [3]) and in assay [2] (setting [4]) were 11 to 25 µM and at least 51 µM, respectively.
Turning to `Brc1ccc2[nH]cc(/C=C/c3cc4ccccc4[n+]4c3-c3c(ccc5c3-c3cccc[n+]3CCC5)CCC4)c2c1.O=S(=O)([O-])C(F)(F)F.O=S(=O)([O-])C(F)(F)F` [MSC-C9-30, 19-((E)-2-(5-bromo-1H-indol-3-yl)vinyl)-6,7,8,11,12,13-hexahydropyrido[1′″,2′″:1″,2″]azepino[4″,3″:5′,6′]benzo[1′,2′:3,4]azepino[1,2-a]quinoline-5,14-diium trifluoromethanesulfonate], the IC50 was at most 10 µM in assay [1] (setting [3]), under 25 µM in assay [1] (setting [5]), at least 100 µM in assay [2] (setting [4]) and over 100 µM in assay [2] (setting [6]).
